Experimental data published in patent US12084434B2 (Scorpion Therapeutics, Inc., priority 2021, dated 2024).
Read-outs that look alike come from different tables or passages of the source.

Key:
[1] = test system: T47D pAKT (S473), PI3Kα H1047R mutation present; assay: HTRF pAKT-T47D;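 further: assay medium was RPMI with 10% FBS and 0.2 units/ml bovine insulin, without phenol red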
[2] = target: T1, PI3Kα H1047R protein (p110-α H1047R complexed with truncated p85-α) (Homo sapiens, UniProt P42336, H1047R); assay: Surface Plasmon Resonance (SPR) binding, wortmannin-blocked protein; settings: Biacore 8K, ATP site blocked with 1 μM wortmannin, 25° C.
T1 construct: The protein contained a full-length p110-α subunit harboring the H1047R mutation
T1 sequence (P42336 whole entry H1047R, the tested form may be a part): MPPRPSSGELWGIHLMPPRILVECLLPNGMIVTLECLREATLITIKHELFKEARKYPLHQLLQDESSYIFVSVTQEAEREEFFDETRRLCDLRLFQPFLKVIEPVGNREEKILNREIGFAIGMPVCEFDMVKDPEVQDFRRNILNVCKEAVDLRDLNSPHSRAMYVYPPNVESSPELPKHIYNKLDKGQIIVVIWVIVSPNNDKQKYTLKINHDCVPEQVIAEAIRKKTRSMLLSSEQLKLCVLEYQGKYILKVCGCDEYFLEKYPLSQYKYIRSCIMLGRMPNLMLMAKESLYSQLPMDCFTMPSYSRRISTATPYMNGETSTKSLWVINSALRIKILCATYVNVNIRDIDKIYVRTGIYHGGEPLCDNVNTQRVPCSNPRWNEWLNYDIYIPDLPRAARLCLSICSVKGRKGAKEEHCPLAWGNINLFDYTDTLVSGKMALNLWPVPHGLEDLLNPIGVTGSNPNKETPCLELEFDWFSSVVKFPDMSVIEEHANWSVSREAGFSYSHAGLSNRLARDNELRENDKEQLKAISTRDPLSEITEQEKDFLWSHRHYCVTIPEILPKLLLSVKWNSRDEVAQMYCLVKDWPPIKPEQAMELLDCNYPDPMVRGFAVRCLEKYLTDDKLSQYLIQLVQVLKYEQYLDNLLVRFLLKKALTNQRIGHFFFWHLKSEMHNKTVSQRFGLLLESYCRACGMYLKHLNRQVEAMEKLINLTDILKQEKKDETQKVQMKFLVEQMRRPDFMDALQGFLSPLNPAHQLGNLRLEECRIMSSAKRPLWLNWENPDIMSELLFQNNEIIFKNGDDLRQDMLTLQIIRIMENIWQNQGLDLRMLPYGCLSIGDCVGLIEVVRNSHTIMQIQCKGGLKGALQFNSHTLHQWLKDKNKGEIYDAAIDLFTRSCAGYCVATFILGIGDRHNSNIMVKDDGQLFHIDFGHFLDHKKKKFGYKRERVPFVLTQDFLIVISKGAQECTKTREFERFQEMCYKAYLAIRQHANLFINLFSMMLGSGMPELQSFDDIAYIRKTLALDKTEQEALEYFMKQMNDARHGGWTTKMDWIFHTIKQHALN
T1 sequence (P27986 322-694 partner limits assumed): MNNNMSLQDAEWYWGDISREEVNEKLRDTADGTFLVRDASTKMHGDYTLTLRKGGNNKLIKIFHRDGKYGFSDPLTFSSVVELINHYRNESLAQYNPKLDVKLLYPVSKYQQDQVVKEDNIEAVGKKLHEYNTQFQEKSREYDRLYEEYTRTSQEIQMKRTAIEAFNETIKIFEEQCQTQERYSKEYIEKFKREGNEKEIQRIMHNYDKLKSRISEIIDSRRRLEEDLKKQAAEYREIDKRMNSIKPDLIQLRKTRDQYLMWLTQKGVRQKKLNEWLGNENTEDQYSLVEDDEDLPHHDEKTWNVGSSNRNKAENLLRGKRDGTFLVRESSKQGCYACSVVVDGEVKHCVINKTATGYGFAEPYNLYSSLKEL
Method: Surface Plasmon Resonance (SPR)
SPR experiments were performed on a Biacore 8K instrument. A biotinylated recombinant PI3Kα H1047R protein was used in this study. The protein contained a full-length p110-α subunit harboring the H1047R mutation with an N-terminal AviTag, complexed with a truncated p85-α subunit (amino acid residues 322-694). The protein was first incubated with 1 μM wortmannin for 30 min at RT to covalently block the ATP binding site, then immobilized onto a streptavidin sensor chip by flowing the protein through the sensor chip at typically 20 μg/mL concentration and 2 μL/min flow rate for 1200 seconds. Compound binding affinities were measured in the multi-cycle kinetics mode, at 90 μL/min flow rate with 90 seconds association time and 240 seconds dissociation time. The running buffer contained 50 mM Tris, pH 7.5, 150 mM NaCl, 0.01% Brij35, 1 mM DTT, 1 mM MgCl2, 0.05% Tween-20 and 2% DMSO. Temperature was maintained at 25° C. during experiments.

[3] = Homo sapiens, T47D, 1 h, read-out: T47D pAKT IC50 (nM), T47D.1 cells, pAKT (S473) HTRF, 1 hour

| SMILES | IC50 [1, 3] | Kd [2] | IC50 ([1]; read-out: T47D pAKT IC50, T47D.1 cells, pAKT (S473) HTRF, 1 hour) |
| --- | --- | --- | --- |
| Cc1c([C@@H](NC(=O)Nc2cncc(C(=O)N3CCC3)c2)C(C)C)oc2ccc(F)cc12 [Compound 63, (S)-1-(5-(azetidine-1-carbonyl)pyridin-3-yl)-3-(1-(5-fluoro-3-methylbenzofuran-2-yl)-2-methylpropyl)urea] | < 1000 nM | < 100 nM | – |
| Cc1c([C@@H](NC(=O)Nc2ccc(C(=O)N3CC(F)C3)nc2)C(C)C)oc2ccc(F)cc12 [Compound 64, (S)-1-(1-(5-fluoro-3-methylbenzofuran-2-yl)-2-methylpropyl)-3-(6-(3-fluoroazetidine-1-carbonyl)pyridin-3-yl)urea] | 1000 to 5000 nM | < 100 nM | – |
| Cc1c([C@@H](NC(=O)Nc2ccc(C(=O)N(C)C)nc2)C(C)C)oc2ccc(F)cc12 [Compound 65, (S)-5-(3-(1-(5-fluoro-3-methylbenzofuran-2-yl)-2-methylpropyl)ureido)-N,N-dimethylpicolinamide] | 1000 to 5000 nM | 100 to 250 nM | – |
| Cc1c([C@@H](NC(=O)Nc2cnc(N)nc2)C(C)C)oc2ccc(F)cc12 [Compound 66, (S)-1-(2-aminopyrimidin-5-yl)-3-(1-(5-fluoro-3-methylbenzofuran-2-yl)-2-methylpropyl)urea] | – | < 100 nM | 1000 to 5000 nM |
| Cc1c([C@@H](NC(=O)Nc2ccc(N3CCC3)nc2)C(C)C)oc2ccc(F)cc12 [Compound 71, (S)-1-(6-(azetidin-1-yl)pyridin-3-yl)-3-(1-(5-fluoro-3-methylbenzofuran-2-yl)-2-methylpropyl) urea] | < 1000 nM | < 100 nM | – |
| Cc1c([C@@H](NC(=O)Nc2cnc(N3CC(F)(F)C3)nc2)C(C)C)oc2ccc(F)cc12 [Compound 72, (S)-1-(2-(3,3-difluoroazetidin-1-yl)pyrimidin-5-yl)-3-(1-(5-fluoro-3-methylbenzofuran-2-yl)-2-methylpropyl)urea] | < 1000 nM | < 100 nM | – |
| Cc1c([C@@H](NC(=O)Nc2cnc(N3CC(F)C3)nc2)C(C)C)oc2ccc(F)cc12 [Compound 73, (S)-1-(1-(5-fluoro-3-methylbenzofuran-2-yl)-2-methylpropyl)-3-(2-(3-fluoroazetidin-1-yl)pyrimidin-5-yl)urea] | < 1000 nM | < 100 nM | – |
| Cc1c([C@@H](NC(=O)Nc2cnc(N3CCC3)nc2)C(C)C)oc2ccc(F)cc12 [Compound 74] | < 1000 nM | < 100 nM | – |
| Cc1c([C@@H](NC(=O)Nc2cnc(N)nc2)C(C)C)oc2c(F)cc(F)cc12 [Compound 75, (S)-1-(2-aminopyrimidin-5-yl)-3-(1-(5,7-difluoro-3-methylbenzofuran-2-yl)-2-methylpropyl)urea] | < 1000 nM | < 100 nM | – |
